We go through seven compounds from ChEMBL document CHEMBL1201862, “PubChem BioAssay data set” (2004).

What all share (test): NCI tumour cell line growth inhibition, 48 h
Assay [1] deals with BT-549.
The subject of assay [2] is NCI/ADR-RES.
For assay [3], the system named is HOP-62.
Assay [4] has as its system RXF 393.
The subject of assay [5] is EKVX.
For assay [6], the system named is K562.
Assay [7] has as its system UACC-257.
Assay [8] deals with SF-268.
The test system of assay [9] is MDA-N.
The subject of assay [10] is UO-31.
Assay [11] deals with ACHN.
Assay [12] has as its system MOLT-4.
Assay [13] relates to U-251.
For assay [14], the system named is OVCAR-4.
Assay [15] relates to SNB-19.
Assay [16] has as its system MDA-MB-435.
The subject of assay [17] is T47D.
Assay [18] has as its system SK-OV-3.
For assay [19], the system named is SN12C.
The test system of assay [20] is SF-539.

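Results reflect a 48-hour exposure of cells in 96-well plates to compound at five concentrations. GI50 is the concentration that inhibits growth by half.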 The source made the active and inactive calls. Rule as the data show it: active = GI50 up to about 1.1 µM and inactive = higher.

Regarding `COc1cccc2c1C(=O)c1c(O)c3c(c(O)c1C2=O)C[C@@](O)(C(=O)CO)C[C@@H]3OC1CC(N2CCOCC2C#N)C(O)C(C)O1` (stereo not given in full), the GI50 in assay [1] is 5.39e-05 µM (active); in [2], 5.36e-05 µM (active); in assay [3] it was 2.32e-05 µM (active); in assay [4] it was 1.91e-05 µM (active); in [5], 0.000227 µM (active); in assay [6] it was 2.52e-05 µM (active). Also, the GI50 is 5.97e-05 µM (active) in assay [7]; 3.82e-05 µM (active) in [8]; 9.08e-05 µM (active) in [9]; 5.52e-05 µM (active) in assay [10]; 3.27e-05 µM (active) in [11]; 1.83e-05 µM (active) in assay [12]. Besides, the GI50 in assay [13] was 3.01e-05 µM (active); in [14], 2.18e-05 µM (active); in assay [15], 3.52e-05 µM (active); in assay [16], 7.4e-05 µM (active); in [17] it was 0.000102 µM (active); in assay [18], 0.000124 µM (active). Also, the GI50 was 2.14e-05 µM (active) in assay [19] and 2.41e-05 µM (active) in assay [20].

`COc1cc(C2c3[nH]c4ccccc4c3[C@@H](Nc3ccc(C#N)cc3)[C@H]3COC(=O)N23)cc(OC)c1O` (stereo not given in full): the GI50 in assay [1] is 0.265 µM (active); in assay [2], 9.98 µM (inactive); in [3], 0.192 µM (active); in assay [4], 1.16 µM (inactive); in assay [5], 0.851 µM (active); in [6], 0.181 µM (active). In addition, the GI50 in [7] was 0.548 µM (active); in [8], 0.208 µM (active); in assay [9] it was 0.376 µM (active); in [10], 0.802 µM (active); in assay [11], 0.155 µM (active); in assay [12] it was 0.0188 µM (active). Further, the GI50 was 0.175 µM (active) in [13]; 1.84 µM (inactive) in assay [14]; 0.235 µM (active) in assay [15]; 0.388 µM (active) in assay [16]; 0.345 µM (active) in assay [17]; 0.254 µM (active) in [18]. Further, the GI50 in assay [19] was 0.186 µM (active); in [20], 0.0618 µM (active).

As for `Clc1ccc(COc2ccccc2/C=N/c2c(-c3ccco3)nc3ccccn23)c(Cl)c1`, the GI50 was 30 µM (inactive) in assay [1]; 30.6 µM (inactive) in [2]; 32.9 µM (inactive) in assay [3]; 20.9 µM (inactive) in assay [4]; 17.4 µM (inactive) in assay [5]; 28.4 µM (inactive) in [6]. In addition, the GI50 in assay [7] was 39.1 µM (inactive); in assay [8] it was 39.3 µM (inactive); in assay [9], 23 µM (inactive); in assay [10], 39.3 µM (inactive); in assay [11], > 100 µM (inactive); in assay [12], 31.9 µM (inactive). For the same compound, the GI50 was 33.7 µM (inactive) in [13]; 24.9 µM (inactive) in assay [14]; 44.1 µM (inactive) in [15]; 14.5 µM (inactive) in assay [16]; 24.7 µM (inactive) in assay [17]; > 100 µM (inactive) in [18]. The values for the GI50 in assay [19] and in assay [20] were 25.8 µM (inactive) and 21.1 µM (inactive), respectively.

Take `O=C1c2cccnc2-c2nccc3c2c1nc1ccc(Br)cc13`: the GI50 was 0.0337 µM (active) in assay [1]; 0.034 µM (active) in [2]; 0.031 µM (active) in [3]; 0.0184 µM (active) in [4]; 0.0948 µM (active) in [5]; 0.0238 µM (active) in assay [6]. For the same compound, the GI50 in assay [7] was 0.0536 µM (active); in [8], 0.0242 µM (active); in assay [9] it was 0.109 µM (active); in [10] it was 0.0557 µM (active); in [11], 0.0263 µM (active); in assay [12], 0.184 µM (active). The GI50 in assay [13] is 0.0363 µM (active); in assay [14], 0.061 µM (active); in assay [15], 0.136 µM (active); in assay [16], 0.0887 µM (active); in [17], 0.0789 µM (active); in [18], 0.145 µM (active). Also, the figures for the GI50 in assay [19] and in assay [20] were 0.0482 µM (active) and 0.0601 µM (active), respectively.

For the compound `CC(C)c1cc(C(C)C)c(B(c2ccccc2)c2ccccc2)c(C(C)C)c1Br`, the GI50 in [1], in [2], in assay [3], in assay [4], in assay [5] and in assay [6] was > 100 µM (inactive) in each case. Moreover, the GI50 in assay [7], in assay [8], in assay [9], in assay [10], in [11] and in assay [12] was > 100 µM (inactive) in each case. The GI50 in assay [13], in assay [14], in [15], in assay [16], in assay [17] and in [18] was > 100 µM (inactive) each time. For the same compound, the GI50 in assay [19] and in assay [20] was > 100 µM (inactive) in each case.

With `CCOC(=O)c1c2c(n(C)c1-c1ccccc1)C(=O)C(C)=CC2=O`, the GI50 is 13.2 µM (inactive) in assay [1]; 7.83 µM (inactive) in [2]; 17.3 µM (inactive) in [3]; 8.97 µM (inactive) in assay [4]; 5.87 µM (inactive) in [5]; 3.44 µM (inactive) in assay [6]. For the same compound, the GI50 in [7] is 2.61 µM (inactive); in [8], 8.11 µM (inactive); in assay [9], 2 µM (inactive); in assay [10], 12.2 µM (inactive); in assay [11], 7.28 µM (inactive); in assay [12], 2.55 µM (inactive). Moreover, the GI50 in assay [13] was 7.8 µM (inactive); in assay [14], 7.05 µM (inactive); in [15], 13.5 µM (inactive); in assay [16], 1.91 µM (inactive); in assay [17], 3.13 µM (inactive); in [18], 16.7 µM (inactive). Also, the GI50 in assay [19] is 7.69 µM (inactive); in [20], 4.05 µM (inactive).

Regarding `Cc1ccc(S(=O)(=O)NNC(=O)c2cc(C)ccc2NC(=O)C23CC4CC(CC(C4)C2)C3)cc1`, the GI50 in assay [1] is > 100 µM (inactive); in [2] it was 38.5 µM (inactive); in assay [3], 29.3 µM (inactive); in [4], 25.4 µM (inactive); in assay [5], 60 µM (inactive); in assay [6], > 100 µM (inactive). The GI50 in [7] was 25.4 µM (inactive); in assay [8], 41.7 µM (inactive); in assay [9] it was > 100 µM (inactive); in [10], 21.6 µM (inactive); in assay [11], 21.1 µM (inactive); in [12], > 100 µM (inactive). Also, the GI50 in assay [13] was 27.6 µM (inactive); in assay [14], 27.7 µM (inactive); in assay [15] it was 16.9 µM (inactive); in assay [16] it was 61.9 µM (inactive); in assay [17], 22.2 µM (inactive); in [18] it was 22.6 µM (inactive). Besides, the GI50 was 44.4 µM (inactive) in [19] and 52.1 µM (inactive) in assay [20].
